# Laboratory results reported in publication PMC11106456, “Increased Vasoactive Intestinal Peptide (VIP) in polycystic ovary syndrome patients undergoing IVF” (Frontiers in Endocrinology, 2024).
# Assay: Biological stability of VIP in follicular fluid (ELISA, during defrosting)
# Type: in vitro ADME
# Conditions: human follicular fluid samples from IVF patients, stored at -80°C, measured during defrosting process; read-out sandwich ELISA (450 nm); p<0.05; Supplementary Figure 1
# Description: FF was obtained after oocyte retrieval during IVF according to the following procedure. The follicular fluid aspirated from each patient was pooled in conical bottomed 15 ml polypropylene tubes and centrifugated at 1000 g for 3 minutes at 21°C. The supernatant was collected, transported to the laboratory and stored at -80°C until further analysis.
# The enzyme-linked immunosorbent assay (ELISA) used to quantify VIP in follicular samples was based on the principle of sandwich enzyme immunoassay. The quantification was performed following manufacturer’s protocol of ELISA kit (ELK Biotechnology CO., Ltd). Briefly, the microtiter plate provided has been pre-coated with an antibody specific for VIP. 100 μL of standards and samples were added to the appropriate microtiter plate wells and incubated for 80 minutes at 37°C. After the wash, 100 μl/well of biotin-conjugated antibody solution was added and incubated for 50 minutes at 37°C. […] Next, a final wash was performed and 90 μL of 5-5’-tetramethylbenzidine (TMB) substrate solution was added and the color development was monitored and quantified after the addition of sulfuric acid solution. The absorbance was measured spectrophotometrically at 450 nm by using microplate spectrophotometer (Labsystem Multiskan MS). […] The concentration of VIP in the samples was determined by comparing the optical density of the samples to the standard curve. […]
smiles,measurement,value
"CC[C@H](C)[C@H](NC(=O)[C@H](CO)NC(=O)[C@H](CC(N)=O)NC(=O)[C@H](CC(C)C)NC(=O)[C@H](Cc1ccc(O)cc1)NC(=O)[C@H](CCCCN)NC(=O)[C@H](CCCCN)NC(=O)[C@@H](NC(=O)[C@H](C)NC(=O)[C@H](CCSC)NC(=O)[C@H](CCC(N)=O)NC(=O)[C@H](CCCCN)NC(=O)[C@H](CCCN=C(N)N)NC(=O)[C@H](CC(C)C)NC(=O)[C@H](CCCN=C(N)N)NC(=O)[C@@H](NC(=O)[C@H](Cc1ccc(O)cc1)NC(=O)[C@H](CC(N)=O)NC(=O)[C@H](CC(=O)O)NC(=O)[C@@H](NC(=O)[C@H](Cc1ccccc1)NC(=O)[C@@H](NC(=O)[C@H](C)NC(=O)[C@H](CC(=O)O)NC(=O)[C@H](CO)NC(=O)[C@@H](N)Cc1c[nH]cn1)C(C)C)[C@@H](C)O)[C@@H](C)O)C(C)C)C(=O)N[C@@H](CC(C)C)C(=O)N[C@@H](CC(N)=O)C(N)=O [VIP, Vasoactive intestinal peptide]",VIP concentration in follicular fluid over time (biological stability),significant reduction
